This is an account of results in US12161654B2, “Stability of vitamin D in β-hydroxy-β-methylbutyrate (HMB)” (Metabolic Technologies, LLC, priority 2018, dated 2024).

The conditions of data set [1]: healthy young or old adults; cited from earlier work.
For data set [2] the following is noted: after HMB is fed; cited from earlier work.
A short description of data set [3]: pH of HMBFA and buffered HMBFA. The data set is classed as physicochemical. The text has this: In most instances, the HMB utilized in clinical studies and marketed as an ergogenic aid has been in the calcium salt form. Recent advances have allowed the HMB to be manufactured in a free acid form for use human and animal uses, and preferably as a nutritional supplement or incorporated into foodstuffs. […] The pH of HMBFA is <3.
Preparation of Buffered HMB in the Free Acid Form (HMBFA) Briefly, 400 g HMBFA (TSI lot 12111036) was weigh into a one liter beaker and then 37.8 g of with potassium carbonate (K2CO3) was added to the HMBFA. A stir bar was added and the mixture was stirred for 60 h. The resulting pH was approximately 4.5. Alternatively, the reaction may be accelerated by mixing water (35 g) with potassium carbonate (37) g and then adding HMBFA (400 g).

With `CC(C)(O)CC(=O)O` [HMB, β-hydroxy-β-methylbutyrate], the side effects result in data set [1] is “no side effects”. Also, the “loss of HMB to urine” value in data set [2] was 20-50%.

In data set [3], `CC(C)(O)CC(=O)O` [HMBFA, β-hydroxy-β-methylbutyrate] registered a pH of less than 3.
